In publication PMC3804063 (Journal of medicinal chemistry, 2013):
“And” between values parts separate entries of the source, which are not always exact repeats. Equal values may be shown once. “Also recorded” adds a separate entry of the source.

Columns and labels:
human CB2 receptors = human CB2 receptors (Homo sapiens, UniProt P34972); type: binding; conditions: ratio of Ki to Ki of 1
[1] = molecular target: HEK293 cells stably expressing CB2 (Homo sapiens, UniProt P34972); type: cell-based; conditions: 1 µM compound
[2] = test system: CB2 receptor-transfected Chinese hamster cells; conditions: cited from earlier work
CB2 W5.43(194)Y mutation = conditions: cited from earlier work
CB2 W5.43A/F mutations = conditions: suggesting a misfolded protein; cited from earlier work
CB2 S4.53(161)A mutation = conditions: cited from earlier work
CB2 S4.57(165)A mutation = conditions: cited from earlier work
CB1 S7.39A mutation = conditions: cited from earlier work

Sequence of human CB2 receptors (P34972 whole entry): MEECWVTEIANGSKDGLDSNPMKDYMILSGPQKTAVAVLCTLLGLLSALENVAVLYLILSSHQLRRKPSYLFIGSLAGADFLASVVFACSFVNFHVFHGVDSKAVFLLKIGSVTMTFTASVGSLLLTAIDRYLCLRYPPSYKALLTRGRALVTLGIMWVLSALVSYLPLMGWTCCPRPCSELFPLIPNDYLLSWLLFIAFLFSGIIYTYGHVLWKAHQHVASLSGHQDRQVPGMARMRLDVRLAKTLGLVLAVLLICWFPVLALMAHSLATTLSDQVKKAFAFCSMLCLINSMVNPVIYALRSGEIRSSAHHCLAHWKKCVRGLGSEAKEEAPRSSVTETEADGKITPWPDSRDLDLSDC
Sequence of HEK293 cells stably expressing CB2 (P34972 whole entry): as above

SMILES | fold loss of CB2 affinity compared to 1 (human CB2 receptors) | antagonism of CP55940 effect in the cAMP assay [1] | further results
Cc1ccc(Cn2cc(/C=C/[C@@H]3C(C)(C)[C@@H]4CC[C@@]3(C)C4)cc2-c2ccc(Cl)c(C)c2)cc1 [Compound 4, 5-(4-Chloro-3-methylphenyl)-1-[(4-methylphenyl)methyl]-3-[(E)-2-[(1S,2S,4R)-1,3,3-trimethylbicyclo[2.2.1]heptan-2-yl]ethenyl]-1H-pyrrole] | 547 fold | lack antagonist properties | –
Cc1ccc(Cn2nc(C(=O)N[C@@H]3C(C)(C)[C@@H]4CC[C@@]3(C)C4)cc2-c2ccc(Cl)c(C)c2)cc1 [Compound 1, N-[(1S)-endo-1,3,3-trimethylbicyclo[2.2.1]heptan2-yl]-5-(4-chloro-3-methylphenyl)-1-[(4-methylphenyl)methyl]-1H-pyrazole-3-carboxamide] | – | antagonize the effects of CP-55,940; also recorded: antagonize the cAMP effects of CP55940 | effect on high constitutive activity of CB2 [2]: inverse agonist; effect of mutation on binding (CB2 W5.43(194)Y mutation): decrease in the binding; effect of mutation on binding (CB2 W5.43A/F mutations): no detectable binding; effect of mutation on binding (CB2 S4.53(161)A mutation): abolished the binding; effect of mutation on binding (CB2 S4.57(165)A mutation): abolished the binding
Cc1cc(-c2cc(C(=O)N[C@@H]3C(C)(C)[C@@H]4CC[C@@]3(C)C4)nn2-c2ccccc2)ccc1Cl [Compound 6, 5-(4-Chloro-3-methylphenyl)-1-phenyl-N-{1,3,3-trimethylbicyclo[2.2.1]heptan-2-yl}-1H-pyrazole-3-carboxamide] | 42 fold | no antagonism; also recorded: lack antagonist properties | –
CCCCCCC(C)(C)c1ccc([C@@H]2C[C@H](O)CC[C@H]2CCCO)c(O)c1 [CP-55,940] | – | – | effect of mutation on binding (CB1 S7.39A mutation): loss of binding
Cc1ccc(Cn2nc(C(=O)N[C@@H]3C[C@@H]4CC[C@@]3(C)C4(C)C)cc2-c2ccc(Cl)c(C)c2)cc1 [Compound 5, 5-(4-Chloro-3-methylphenyl)-1-[(4-methylphenyl)methyl]-N-[(1S,2R,4S)-1,7,7-trimethylbicyclo[2.2.1]heptan-2-yl]-1H-pyrazole-3-carboxamide] | 13 fold | antagonize the cAMP effects of CP55940 | –
CCCCCCC(C)(C)c1cc(O)c2c(c1)OC(C)(C)[C@@H]1CC=C(CO)C[C@@H]21 [HU210] | – | – | effect of mutation on binding (CB1 S7.39A mutation): reduction in binding
Cc1ccc(Cn2cc(C(=O)N[C@@H]3C(C)(C)[C@@H]4CC[C@@]3(C)C4)cc2-c2ccc(Cl)c(C)c2)cc1 [Compound 3, 5-(4-Chloro-3-methyl-phenyl)-1-(4-methyl-benzyl)-1H-pyrrole-3-carboxylic acid (1,3,3-trimethyl-bicyclo[2.2.1]hept-2-yl)-amide] | 7 fold and 6.8 fold | more potent CB2 antagonist than 1; also recorded: antagonize the cAMP effects of CP55940 | –
Cc1ccc(Cn2nc(/C=C/[C@@H]3C(C)(C)[C@@H]4CC[C@@]3(C)C4)cc2-c2ccc(Cl)c(C)c2)cc1 [Compound 2, 5-(4-Chloro-3-methylphenyl)-1-(4-methyl-benzyl)-3-[(E)-2-endo-(1,3,3-trimethyl-bicyclo[2.2.1]hept-2-yl)-vinyl]-1H-pyrazole] | 236 fold | lack antagonist properties | –
